{"source": "patent US20240358731A1", "about": "“SUMO PATHWAY AS AN OXYGEN SENSOR RELEVANT TO THE PATHOPHYSIOLOGY OF PULMONARY ARTERY HYPERTENSION AND CARDIAC ARRHYTHMIA” (Northeastern University, priority 2023, published 2024)", "origin": "cited, not measured here", "key": {"[1]": {"test_system": "pfSENP1", "conditions": "cited from earlier work"}, "[2]": {"test_system": "SENP1 mRNA", "conditions": "cited from earlier work"}}, "data": [{"compound": "O=C(O)CN(NC(=O)c1ccc(CNC(=O)c2cccc(C(=O)O)c2)cc1)C(=O)[C@H]1O[C@@H]1C(=O)N(Cc1cccc2ccccc12)Cc1cccc2ccccc12", "note": "[JCP-666]", "values": [{"measurement": "pfSENP1 inhibition", "setting": "[1]", "result": "inhibitor"}]}, {"compound": "CC(C)[C@]12O[C@H]1[C@@H]1O[C@]13[C@]1(O[C@H]1C[C@H]1C4=C(CC[C@@]13C)C(=O)OC4)[C@@H]2O", "note": "[Triptolide]", "values": [{"measurement": "SENP1 mRNA levels", "setting": "[2]", "result": "decreased SENP1 mRNA levels"}]}]}
